Source: US11692004B2, “Substituted pyrazole compound, preparation method therefor, pharmaceutical composition and medical use thereof” (JIANGSU VANGUARD PHARMACEUTICAL CO., LTD., priority 2018, dated 2023)
pEC50: −log10 of the molar value. Values after ≈ are worked out from the molar mass of the structure shown.

Experiments:
[1] = Solubility test in distilled water; format: physicochemical; conditions: thermodynamic from solid, 25° C.
Description: Test method: the dry compound was slowly dissolved into about 0.5 ml distilled water in a 5 ml EP tube until saturation (turbid after ultra-sonic vibration at 25° C.). The solution was filtered and moved to another clean 5 ml EP tube (pre-weighed) and the tube was weighed again to calculate the solution weight. The solution was freeze dried. The remaining solute was weighed to calculate the solvent weight, and then the compound solubility in water was determined.

Cytotoxic test (MTT) = format: cell-based; conditions: rat, PC12 cells, 48 h incubation
Description: (§1) After resuscitating, the PC12 cells were cultured in RPMI-1640 containing 10% horse serum and 5% Fetus Bovine Serum (FBS) under 5% CO2 at 37° C. for two weeks. The medium was changed every other day. The compounds were diluted into solutions of 12.5, 25, 50, 100, 200, 300 μM with culture medium (except examples 33-45 with additional solutions of 400 μM and 500 μM). The PC12 cells were seeded into a 96-well plate at a density of 1.2×10^4 cells/well and cultured in a 37° C., 5% CO2 incubator for 24 hours. Remove the medium, the cells were added with the compound solutions of different concentrations as test solutions for another 48 h incubation in a 37° C., 5% CO2 incubator.
After the incubation, the wells were added with 20 μL 5 mg/mL MTT and incubated for 4 hours at 37° C. Carefully removed the medium and added 150 μL DMSO. The plates were placed on an enzyme-labeled instrument and vibrated for 5 min. The absorbance Atest solution were obtained at 490 nm with the Ablank of the well without cells and the Acontrol of the well with untreated cells. The survival rates of the cells in every well were calculated by the formula as Survival rate (%)=(Atest solution−Ablank)/(Acontrol−Ablank)*100%

[2] = tested on: MCAO model (middle cerebral artery ischemia-reperfusion); assay: In vivo drug efficacy test of MCAO model; conditions: SD rats, MCAO 2 h then reperfusion, tail vein infusion 30 min; for Cerebral infarction area (%): TTC staining, infarct area to whole brain area; for Improvements of nerve function (%): score at 24 h versus model control
PC12 cells = assay: In-vitro neuroprotection-I (H2O2 injury, MTT); format: cell-based; conditions: Rattus norvegicus, PC-12, 48 h compound, then 200 μM H2O2 24 h, MTT survival rate
Description: All samples were made into 60 mM stock solution by DMSO, which were 200 times diluted to 300 μM by medium. And the final concentration was further diluted into different concentrations by media.
Control: Normal cell-plating and same cell medium as other group. 24 hours later, the medium was discarded. Incubate the cell in new media for 24 hours. No compound and hydrogen peroxide treatment. Other steps were the same as the sample test as mentioned below did.
Blank: no cell plating, cell medium, and other steps were the same as the sample test as mentioned below did.
as §1, with “(except that” for “(except”, “The PC 12” for “The PC12”, “of 8×10^3” for “of 1.2×10^4”, “hours. Removed” for “hours. Remove”, “incubator. After the incubation, apart from the blank and control groups, the wells (including 0 μM drug group) were added to the medium-prepared 200 μM H2O2, and continued for another 24 h incubation in a 37° C., 5% CO2 incubator.” for “incubator.”
After the incubation, the wells were added with 20 μL 5 mg/mL MTT and incubated for 4 hours at 37° C. Carefully removed the medium and added 150 μL DMSO. The plates were placed on an enzyme-labeled instrument and vibrated for 5 min. The absorbance Atest solution were obtained at 490 nm with the Ablank of the well without cells and the Acontrol of the well with untreated cells. The survival rate of the cells in every well by the formula survival rate (%)=(Atest solution−Ablank)/(Acontrol−Ablank)*100%.

[3] = tested on: B6SJL-Tg (SOD1*G93A) mice; assay: In vivo efficacy test of ALS model; design: key to Rotarod Time / PaGE: “+” indicates a significant difference compared with the solvent group, p < 0.05; conditions: for Plasma SOD concentration on day 28th(U/mL): ELISA; for PaGE / Rotarod Time: versus solvent group; for Fall latency in rota-rod test and PaGE test: 28-day drug intervention
Description: B6SJL-Tg (SOD1*G93A) mice were intraperitoneally administered single-doses once a day for 4 consecutive weeks. The weight of the mice was determined before and after the administration every week. The motor function of the mice was determined by rota-rod and PaGE tests with the time points before and after 4-week administration. The mice plasma was collected and detected for SOD levels through ELISA. The Index Evaluation described below was used to evaluate the efficacy of the compounds of the examples in ALS model and to what extent the compounds of the examples improve the survival period and motor activity.
The animals were delivered to the SPF animal room and raised for more than one week. Five days before the test, the mice were accustomed to a round of tests per day. The mice were randomly divided into groups according to their body weights, 8 mice for each group. Among them, the solvent group was given with the same volume of solvent (physiological saline) every day.
The mice were administered with a volume of 10 ml/kg.
i.p once a day for 4 weeks.
Index evaluation time started from the beginning of the experiment to the death of the animals.
1) ALS onset time: For 2 consecutive observation days, the mice appeared limb, tremor and/or limb weakness at tail suspension were determined as the ALS onset. The determination of limb weakness: the mice were placed on the rota-rod device with a diameter of 3.5 cm. The speed is set to 15 rpm to record the longest fall latency divided by 420 s. The mice of less 420 s were determined as limb weakness.
2) Rota-rod Test: The mice were placed on the rota-rod device with a diameter of 3.5 cm. The speed is set to 12 rpm to record the longest fall latency divided by 180 s. The latency of more than 180 s was recorded as 180 s, and actual time was recorded when less than 180 s.
3) Paw Grip Endurance (PaGE) Test: The mice were placed on the traditional wire grid. The grid was gently shaken to cause the mice to tighten its grip on the wires then inverted, and time recording commenced. The time was recorded until the mouse lost its grip in hind limbs divided by 90 s. The time more than 90 s was recorded as 90 s, while the time less than 90 s was recorded by its actual time. The test was completed in triplicate with the highest score used for analysis.
5) Plasma SOD concentration: The blood was collected and mixed with EP tube containing heparin before and after administration at the 4th week, and then centrifuged at 1000 g for 10 min. The plasma was collected and stored in aliquots at −70° C. ELISA kit was used to detect plasma SOD levels.

[4] = Stability studies (high humidity, illumination, high temperature, seven days); format: physicochemical; conditions: 25° C. ± 2° C., 60% ± 5 RH, 4500 ± 500 LX
Description: The stability of samples from some embodiments were examined under high humidity (25° C.±2° C., 90%±5RH), illumination (25° C.±2° C., 60%±5RH, 4500±500LX), high temperature (60° C.±2° C., 60%±5RH), which were stored in the stability incubator for seven days, for the changes of related substances and contents, as shown in Table 2.

[5] = 86 μmol/kg i.p. once a day for 4 weeks

Compound | solubility [1] [µg/mL] | IC50 at 48 h (Cytotoxic test (MTT)) [µM] | Cerebral infarction area (%) [2] [%] | Improvements of nerve function (%) [2] [%] | pEC50 (PC12 cells) | Onset time(d) [3, 5] | Survival time [3, 5] [days] | Plasma SOD concentration on day 28th(U/mL) [3, 5] | PaGE [3, 5] | Rotarod Time [3, 5] | Fall latency in rota-rod test and PaGE test [3] | Onset time [3, 5] [days] | Content Drop, Illumination [4] [%] | Stability, Illumination: changes of related substances and contents [4]
Cc1cc(OC2OC[C@@H](O)[C@H](O)[C@H]2O)n(-c2ccccc2)n1 (stereo partly drawn) [Compound 38, 1-phenyl-3-methyl-5-O-D-xylopyranoside-pyrazole] | 3800 (≈ 12.4 mM) | > 500 | 17.8 | 17.0 | – | – | – | – | – | – | – | – | – | –
Cc1cc(OC2O[C@H](CO)[C@@H](O)[C@H](O)[C@H]2O)n(-c2ccccc2)n1 (stereo partly drawn) [Compound 33, 1-phenyl-3-methyl-5-O-D-glucoside-pyrazole] | 10100 (≈ 30 mM) | > 300 | 14.0 | 24.0 | 3.95 | 118.25 ± 5.87* d | 149.88 ± 8.37 | 155.18 ± 15.37* U/mL | + | + | better than the marketed drug edaravone | – | – | –
CC(=O)N[C@H]1C(Oc2cc(C)nn2-c2ccccc2)O[C@H](CO)[C@@H](O)[C@@H]1O (some centres unmarked) [Compound 37] | 6500 (≈ 17.2 mM) | > 500 | 17.6 | 17.5 | 4.05 | – | – | – | – | – | – | – | – | –
CC1=NN(c2ccccc2)C(=O)C1 [Edaravone, edaravone, reference compound] | < 1000 | – | 20.1 | 15.7 | 3.77 | – | 147.00 ± 8.94 | 153.88 ± 9.91* U/mL | + | + | – | 116.14 ± 7.82 | 4 | dropped significantly
Cc1cc(OC2O[C@H](CO)[C@@H](O)[C@H]2O)n(-c2ccccc2)n1 (stereo partly drawn) [Compound 39, 1-phenyl-3-methyl-5-O-D-riboside-pyrazole] | 5100 (≈ 16.6 mM) | > 500 | 18.0 | 16.9 | 4.26 | – | – | – | – | – | – | – | – | –
Cc1cc(OCOC(=O)c2cc(N(C)C)ccc2O)n(-c2ccccc2)n1 [Compound 24, (3-methyl-1-phenylpyrazole-5-)oxymethyl-(2-hydroxy-5-N,N-dimethyl)benzoate] | – | 272 | – | – | 4.35 | 118.29 ± 6.32* d | 147.71 ± 8.94 | 150.55 ± 11.88* U/mL | + | + | better than the marketed drug edaravone | – | – | –
Cc1cc(OC2O[C@H](CO)[C@H](O)[C@H](O)[C@H]2O)n(-c2ccccc2)n1 (stereo partly drawn) [Compound 35, 1-phenyl-3-methyl-5-O-D-galactoside-pyrazole] | 18000 (≈ 53.5 mM) | > 300 | 15.8 | 22.2 | 4.06 | – | – | – | – | – | – | – | – | –
Cc1cc(OC2O[C@H](CO)[C@@H](O)[C@H](O)[C@@H]2O)n(-c2ccccc2)n1 (stereo partly drawn) [Compound 34, 1-phenyl-3-methyl-5-O-D-mannoside-pyrazole] | 12300 (≈ 36.6 mM) | > 300 | 14.5 | 21.1 | 3.92 | – | – | – | – | – | – | – | – | –
Cc1cc(OC2C[C@H](O)[C@@H](CO)O2)n(-c2ccccc2)n1 (stereo partly drawn) [Compound 40, 1-phenyl-3-methyl-5-O-D-(2-deoxy)riboside-pyrazole] | 3000 (≈ 10.3 mM) | > 500 | 18.5 | 16.8 | 4.26 | – | – | – | – | – | – | – | – | –
Cc1cc(OC2C[C@@H](O)[C@H](O)[C@@H](CO)O2)n(-c2ccccc2)n1 (stereo partly drawn) [Compound 36, 1-phenyl-3-methyl-5-O-D-(2-deoxy)glucoside-pyrazole] | 4200 (≈ 13.1 mM) | > 300 | 14.1 | 24.1 | 4.10 | – | – | – | – | – | – | – | – | –
Cc1cc(OC(C)OC(=O)CCCc2ccccc2)n(-c2ccccc2)n1 (centres unmarked) [Compound 9, 1-(3-methyl-1-phenylpyrazole)oxyethyl phenylbutyrate] | – | > 300 | 19.8 | 16.0 | 3.92 | – | – | – | – | – | – | – | – | –
